According to patent US20250136572A1, “PARA ACYL SUBSTITUTED DIAZACYCLOHEXENE DERIVATIVES” (Renovel Innovations, Inc., priority 2021, published 2025):

Key:
[1] = Body weight in C57BL/6 mice on high fat diet; format: in vivo, male C57BL/6 mice; conditions: for decrease in body weight: compared to the high fat diet control group
[2] = Fasting blood glucose in mice on high fat diet; format: in vivo; conditions: compared with the control high fat diet group
[3] = Oral glucose tolerance test in C57BL/6 mice on high fat diet; format: in vivo; set-up: concentration or dose not given beside the values; conditions: for reduction in blood glucose at the peak oral glucose tolerance test of 30 minutes: compared with the control high fat diet group
Blood pressure in rats = format: in vivo; conditions: compared to the vehicle group
[4] = Triglycerides in high fructose fed hamsters; format: in vivo; conditions: compared with the high fructose fed group
TNF-α = TNF-α in LPS-treated mice; format: in vivo; conditions: from the LPS group

## CCOC(=O)C1=C(C)NC(=O)NC1c1ccc(OC(=O)/C=C/c2ccccc2)cc1 (stereo not shown) [Compound 1, 6-Methyl-2-oxo-4-[4-(3-phenyl-acryloyloxy)-phenyl]-1,2,3,4-tetrahydro-pyrimidine-5-carboxylic acid ethyl ester]
[1]; FIG. 1B, compared with the control high fat diet group
  decrease in percent change in body weight: 15%
[2]
  decrease in fasting blood glucose: 26%
[3]
  reduction in blood glucose at the peak oral glucose tolerance test of 30 minutes: 23%
Blood pressure in rats
  decrease in diastolic blood pressure: 8%
  decrease in systolic blood pressure: 4%
[4]
  decrease in triglycerides: 31%
TNF-α
  decrease of TNF-α: 59%

## CCOC(=O)C1=C(C)NC(=O)NC1c1ccc(OC(=O)/C=C/c2ccccc2)c(OC)c1 (stereo not shown) [Compound 2, 4-[3-Methoxy-4-(3-phenyl-acryloyloxy)-phenyl]-6-Methyl-2-oxo-1,2,3,4-tetrahydro-pyrimidine-5-carboxylic acid ethyl ester]
[1]; FIG. 6A, C57BL/6 mice
  decrease in body weight: 5%
[1]; FIG. 6B, significant (P<0.0001)
  decrease in body weight: 15%
[3]
  reduction in blood glucose at the peak oral glucose tolerance test of 30 minutes: 8%

## CCOC(=O)C1=C(C)NC(=O)NC1c1ccc(OC(=O)C(C)C)c(OC)c1 (stereo not shown) [Compound 3, 4-(4-Isobutyryloxy-3-methoxy-phenyl)-6-methyl-2-oxo-1,2,3,4-tetrahydro-pyrimidine-5-carboxylic acid ethyl ester]
[3]
  reduction in blood glucose at the peak oral glucose tolerance test of 30 minutes: 6%

## CCOC(=O)C1=C(C)NC(=S)NC1c1ccc(OC(=O)C(C)C)c(OC)c1 (stereo not shown) [Compound 4, 4-(4-Isobutyryloxy-3-methoxy-phenyl)-6-methyl-2-thioxo-1,2,3,4-tetrahydro-pyrimidine-5-carboxylic acid ethyl ester]
[3]
  reduction in blood glucose at the peak oral glucose tolerance test of 30 minutes: 33%
[3]; 120 minutes after glucose administration
  reduction in blood glucose at 120 minutes after glucose administration: 26%
